We go through four compounds from publication PMC6225122 (2018).

Converted amounts (≈) assume the structure as drawn.

Assay [1] has as its system aptamer 28 (DNA, aptamer) ACGCATAGGATGCAACAACGCGAATGCCACCAATTCGTGCTTGTCGTGTCCTATGCGT
Kind of assay: circular dichroism. To be noted: binding buffer: 8 g/L NaCl, 0.2 g/L KCl, 0.1 g/L MgCl2·6H2O, 0.1 g/L CaCl2; 1 μM aptamer, 10 μM CBL, room temperature, 30 min. For orientation: CD spectra are sensitive to the conformation of chiral molecules.

In assay [2] the test system is aptamer 47 (DNA, aptamer) ACGCATAGGTCATGCCAAGCTGTACACCGTCCTGGCCTGGTTGGGATGTCCTATGCGT
Put plainly: circular dichroism. Conditions: binding buffer: 8 g/L NaCl, 0.2 g/L KCl, 0.1 g/L MgCl2·6H2O, 0.1 g/L CaCl2; 1 μM aptamer, 10 μM CBL, room temperature, 30 min.

Assay [3] concerns aptamer 64 (DNA, aptamer) ACGCATAGGTACACCACATCGGATCGTAATGCGTATGTGACTCAGTGTGCCTATGCGT
Put plainly: circular dichroism. Conditions: binding buffer: 8 g/L NaCl, 0.2 g/L KCl, 0.1 g/L MgCl2·6H2O, 0.1 g/L CaCl2; 1 μM aptamer, 10 μM CBL, room temperature, 30 min.

Assay [4] deals with aptamer 78 (DNA, aptamer) ACGCATAGGGTACGCCACAGATCGACCTCTGGTTGGTCCTGTTGTGTGGCCTATGCGT
Put plainly: circular dichroism. Conditions: binding buffer: 8 g/L NaCl, 0.2 g/L KCl, 0.1 g/L MgCl2·6H2O, 0.1 g/L CaCl2; 1 μM aptamer, 10 μM CBL, room temperature, 30 min.

Assay [5] deals with aptamer 132 (DNA, aptamer) ACGCATAGGGACCATGCGCAGTGAACTTGGTTCTTTGTGCTCATGTGTGCCTATGCGT
Put plainly: circular dichroism. Conditions: binding buffer: 8 g/L NaCl, 0.2 g/L KCl, 0.1 g/L MgCl2·6H2O, 0.1 g/L CaCl2; 1 μM aptamer, 10 μM CBL, room temperature, 30 min.

Assay [6] concerns aptamer 154 (DNA, aptamer) ACGCATAGGGCATCACACATGTCCTTGCCATTGCTGACTTGTTTGGTGTCCTATGCGT
Kind of assay: circular dichroism. To be noted: binding buffer: 8 g/L NaCl, 0.2 g/L KCl, 0.1 g/L MgCl2·6H2O, 0.1 g/L CaCl2; 1 μM aptamer, 10 μM CBL, room temperature, 30 min.

The test system of assay [7] is aptamer 28 (DNA, aptamer) ACGCATAGGATGCAACAACGCGAATGCCACCAATTCGTGCTTGTCGTGTCCTATGCGT
Kind of assay: AuNP colorimetric titration (A520). Conditions: 0.9 M NaCl (10 µL) added after binding; aptamer 0-1600 nM titrated against 1 μg/mL CBL, water, 30 min, room temperature.

The subject of assay [8] is aptamer 47 (DNA, aptamer) ACGCATAGGTCATGCCAAGCTGTACACCGTCCTGGCCTGGTTGGGATGTCCTATGCGT
Put plainly: AuNP colorimetric titration (A520). To be noted: 0.9 M NaCl (10 µL) added after binding; aptamer 0-1600 nM titrated against 1 μg/mL CBL, water, 30 min, room temperature.

The subject of assay [9] is aptamer 64 (DNA, aptamer) ACGCATAGGTACACCACATCGGATCGTAATGCGTATGTGACTCAGTGTGCCTATGCGT
Put plainly: AuNP colorimetric titration (A520). To be noted: 0.9 M NaCl (10 µL) added after binding; aptamer 0-1600 nM titrated against 1 μg/mL CBL, water, 30 min, room temperature.

In assay [10] the test system is aptamer 78 (DNA, aptamer) ACGCATAGGGTACGCCACAGATCGACCTCTGGTTGGTCCTGTTGTGTGGCCTATGCGT
Put plainly: AuNP colorimetric titration (A520). Conditions: 0.9 M NaCl (10 µL) added after binding; aptamer 0-1600 nM titrated against 1 μg/mL CBL, water, 30 min, room temperature.

The subject of assay [11] is aptamer 132 (DNA, aptamer) ACGCATAGGGACCATGCGCAGTGAACTTGGTTCTTTGTGCTCATGTGTGCCTATGCGT
Kind of assay: AuNP colorimetric titration (A520). To be noted: 0.9 M NaCl (10 µL) added after binding; aptamer 0-1600 nM titrated against 1 μg/mL CBL, water, 30 min, room temperature.

Assay [12] deals with aptamer 154 (DNA, aptamer) ACGCATAGGGCATCACACATGTCCTTGCCATTGCTGACTTGTTTGGTGTCCTATGCGT
Kind of assay: AuNP colorimetric titration (A520). Conditions: 0.9 M NaCl (10 µL) added after binding; aptamer 0-1600 nM titrated against 1 μg/mL CBL, water, 30 min, room temperature.

Assay [13] concerns 5′-biotin aptamer 47 (DNA, aptamer) ACGCATAGGTCATGCCAAGCTGTACACCGTCCTGGCCTGGTTGGGATGTCCTATGCGT
Kind of assay: indirect competitive enzyme-linked aptamer assay (ic-ELAA). To be noted: binding buffer: 8 g/L NaCl, 0.2 g/L KCl, 0.1 g/L MgCl2·6H2O, 0.1 g/L CaCl2; competition with coated CBL-BSA; 1 μM aptamer (50 μL), 37 °C, 1 h.

In assay [14] the test system is aptamer 28 (DNA, aptamer) ACGCATAGGATGCAACAACGCGAATGCCACCAATTCGTGCTTGTCGTGTCCTATGCGT
Kind of assay: AuNP colorimetric specificity assay (A620/A520). To be noted: 0.9 M NaCl added after binding; 1 μg/mL compound, 0.4 μM aptamer, room temperature, 30 min.

Assay [15] deals with aptamer 47 (DNA, aptamer) ACGCATAGGTCATGCCAAGCTGTACACCGTCCTGGCCTGGTTGGGATGTCCTATGCGT
Put plainly: AuNP colorimetric specificity assay (A620/A520). Conditions: 0.9 M NaCl added after binding; 1 μg/mL compound, 0.4 μM aptamer, room temperature, 30 min.

Assay [16] deals with aptamer 64 (DNA, aptamer) ACGCATAGGTACACCACATCGGATCGTAATGCGTATGTGACTCAGTGTGCCTATGCGT
Kind of assay: AuNP colorimetric specificity assay (A620/A520). Conditions: 0.9 M NaCl added after binding; 1 μg/mL compound, 0.4 μM aptamer, room temperature, 30 min.

Assay [17] relates to aptamer 78 (DNA, aptamer) ACGCATAGGGTACGCCACAGATCGACCTCTGGTTGGTCCTGTTGTGTGGCCTATGCGT
Kind of assay: AuNP colorimetric specificity assay (A620/A520). Conditions: 0.9 M NaCl added after binding; 1 μg/mL compound, 0.4 μM aptamer, room temperature, 30 min.

In assay [18] the test system is aptamer 132 (DNA, aptamer) ACGCATAGGGACCATGCGCAGTGAACTTGGTTCTTTGTGCTCATGTGTGCCTATGCGT
Kind of assay: AuNP colorimetric specificity assay (A620/A520). To be noted: 0.9 M NaCl added after binding; 1 μg/mL compound, 0.4 μM aptamer, room temperature, 30 min.

Assay [19] has as its system aptamer 154 (DNA, aptamer) ACGCATAGGGCATCACACATGTCCTTGCCATTGCTGACTTGTTTGGTGTCCTATGCGT
Kind of assay: AuNP colorimetric specificity assay (A620/A520). Conditions: 0.9 M NaCl added after binding; 1 μg/mL compound, 0.4 μM aptamer, room temperature, 30 min.

Usually Kd stands for the equilibrium constant for the complex coming apart. One may read the IC50 as the midpoint of a concentration-inhibition curve. With `CC(C)(C)NCC(O)c1cc(Cl)c(N)c(Cl)c1` (stereo not shown), the binding result in assay [1], in [2], in [3], in [4], in [5] and in [6] was “yes” throughout. Further, the Kd in assay [7] was determined as 321 ± 104.5 nM; in [8], 42.17 ± 8.98 nM; in assay [9] it was 123.3 ± 14.28 nM; in assay [10], 201.1 ± 42.42 nM; in assay [11], 221.6 ± 41.87 nM; in assay [12], 268.8 ± 40.43 nM. The same compound gave an IC50 in assay [13] of 5.44 ± 0.01 ng/mL (≈ 0.0196 µM).

Take `CC(C)(C)NCC(O)c1cc(O)cc(O)c1` (stereo not shown): the binding result in [14], in assay [15], in assay [16], in [17], in [18] and in [19] was “no” in each case.

Consider `CC(C)(C)NCC(O)c1ccc(O)c(CO)c1` (stereo not shown), for which the binding entry in [14], in [15], in assay [16], in assay [17], in assay [18] and in [19] was “no” each time.

For `CC(CCc1ccc(O)cc1)NCC(O)c1ccc(O)cc1` (stereo not shown), the binding entry in [14], in [15], in assay [16], in assay [17], in assay [18] and in assay [19] was “no” in each case.
